Source: EP2954896A1, “Small molecule inhibitors of the E3 Ligase Skp2 in depression and other diseases” (Max-Planck-Gesellschaft zur Förderung der Wissenschaften …, priority 2014, dated 2015)

What was measured:
[1] = Chronic PAR treatment after chronic social defeat stress: physiological and neuroendocrine parameters; type: in vivo, mice
Description: Initially, wild-type and 51 KOmice were split into 2 x 2 groups (control WT, control FKBP51^-/-, defeat WT, defeat FKBP51^-/-) and subjected to the chronic stress procedure described below. After cessation of the stressor, groups were subdivided into vehicle-treated and paroxetine-treated animals, resulting in 8 groups (n = 7-13 per group). The treatment phase lasted for three weeks. The behavioral tests took place during the last week of the paroxetine treatment.
The CSDS paradigm lasted for 21 days. Briefly, the experimental mice were introduced into the home cage (45 cm x 25 cm) of a dominant resident mouse and defeated shortly after. When the defeat was achieved, the animals were separated by a wire mesh, preventing physical but allowing sensory contact for 24 h. Each day, stressed animals were defeated by another unfamiliar, dominant resident mouse in order to exclude a repeated encounter throughout the experiment. The daily defeat was performed between 11:00 and 16:00 h; varying starting times reduced the predictability of the stressor and therefore minimized a potential habituation effect. […] Both stress and control animals were handled daily during the stress procedure; body weight for all mice was assessed at the beginning of the experiment, after the cessation of the stress period, and on the day of killing. […]

Beclin1 mRNA = Beclin1 mRNA expression by qPCR in rat cortical astrocytes; type: cell-based; settings: 10µM for 72h; vehicle set to 1
Description: Enriched astroglial cultures were prepared from postnatal day 1 rat pups (Sprague-Dawley, Charles River, Sulzfeld, Germany) and handled as described by Attwood BK et al. (2011) Nature 473: 372-375 and Hartmann J et al. (2012) Neuropharmacology 62: 332-339.
Total RNA was isolated from astroglial cells according to the manufacturer's protocol of NucleoSpin RNA II (Macherey-Nagel, Germany). In total, 300 ng of purified RNA was reverse transcribed using random primers (Promega) and Omniscript® Reverse Transcriptase (Qiagen). Based on the LightCycler® System (Roche Applied Science, Germany) and SYBR green detection (QuantiFast® SYBR Green; Qiagen), quantitative assessment of Beclin1 cDNA levels were performed. b-Actin PCR was performed serving as endogenous control for normalization. The primers used were: for Beclin1: antisense - 5'-[…]-3' sense - 5'-[…]-3'; and for β-Actin: antisense - 5'-[…]-3', sense-5'-[…]-3'. Relative changes of gene expression were calculated using the comparative ΔΔCT method (Livak and Schmittgen, METHODS 25, 402-408, 2001). Detection of viral RNA by real-time PCR was as recently described (Corman et al. (2014) Journal of Clinical Virology 60: 168-171).
Beclin1 mRNA expression levels were determined by qPCR. HEK cells were treated either with proteasome inhibitor MG132 or with vehicle for 5h and Beclin1 protein levels were determined by Western analysis. Furthermore Co-immunoprecipitations were performed with Beclin1 antibody in HEK cell lysates with ectopic Ub-GFP.

[2] = system: autophagy pathway markers; test: Chronic PAR treatment after chronic social defeat stress: autophagy pathway marker protein levels; type: in vivo, mice; settings: effect of deletion of FKBP51
Description: Western blot analysis was performed on eluates from ColPs or with protein extracts from cells or tissue. Protein extracts were obtained by lysing cells or tissue (prelysed as described in the paragraph before) in 62.5 mM Tris, 2% SDS and 10% sucrose, supplemented with protease (Sigma, P2714) and phosphatase (Roche, 04906837001) inhibitor cocktail. Samples were sonicated and heated at 95 °C for 5 min. Proteins were separated by SDS-PAGE and electro-transferred onto nitrocellulose membranes. Blots were placed in Tris-buffered saline, supplemented with 0.05% Tween (Sigma, P2287) and 5% non-fat milk for 1 h at room temperature and then incubated with primary antibody (diluted in TBS/0.05% Tween) overnight at 4 °C. […]

## Fc1ccc([C@@H]2CCNC[C@H]2COc2ccc3c(c2)OCO3)cc1 [PAR, paroxetine]
[1]; 51 KO versus wild-type mice
  paroxetine-induced body weight increase: significantly less affected
[1]; basal conditions versus stressed animals
  paroxetine-induced body weight increase: significantly enhanced in mice under basal conditions compared to stressed animals
Beclin1 mRNA
  Beclin1 mRNA expression level: do not change Beclin1-mRNA
[2]
  effects on autophagy pathway markers Beclin1, Atg12, pAktS473/Akt and LC3BII/I: abolished
